{"source": "paper PMC5379148", "about": "“A phase I study of intravenous and oral rucaparib in combination with chemotherapy in patients with advanced solid tumours” (British Journal of Cancer, 2017)", "key": {"[1]": {"system": "advanced solid tumours", "assay": "Investigator-assessed tumour response (RECIST version 1.1)", "type": "in vivo, human", "method": "Antitumour activity was assessed by the investigators according to Response Evaluation Criteria in Solid Tumor version 1.1 (RECIST) ([Eisenhauer et al, 2009]) through radiological tumour assessments performed every two cycles and/or at the end of treatment, whichever occurred first."}, "[2]": {"conditions": "in vivo", "protocol": "(§1) On cycle 1 days −10, −5, 1, and 14, plasma samples were obtained from all patients before rucaparib dosing and at 15 and 30 min, and at 1, 1.5, 2.5, 4, 6, 10, and 24 h after the start of the rucaparib administration (i.v. infusion (day −10) or oral (days −5, 1, and 14)). On cycle 1 days −10 and −5, samples were also obtained 48 h after the start of rucaparib administration. Rucaparib concentration was determined using liquid chromatography with tandem mass spectrometry.\n(§2) Plasma clearance or apparent plasma clearance and steady-state volume of distribution were calculated for rucaparib. The oral bioavailability of rucaparib was calculated as the ratio of dose-normalised AUC0–t or AUCinf (data permitting) determined using oral rucaparib PK data collected on cycle 1 day −5 to that determined using the i.v. PK data collected on cycle 1 day −10. Pharmacokinetic parameters were summarised with the geometric mean and the coefficient of variation (CV). The ratio of Cmax and AUC0–24 of rucaparib administered in combination with chemotherapies to those of rucaparib alone was calculated and summarised, with mean and CV% to evaluate the effect of chemotherapies on the PK of rucaparib for both the i.v. dose (day −10) and oral dose (day −5).\n(§3) The oral bioavailability of rucaparib was calculated as the ratio of dose-normalised AUC0-t or AUCinf (data permitting) determined using oral rucaparib PK data collected on cycle 1 day –5 to that determined using the intravenous PK data collected on cycle 1 day –10. The tmax was summarised with medians and ranges. The accumulation ratio after multiple oral rucaparib dosing (once daily) was assessed as the ratio of the AUC0-24 determined using PK collected on cycle 1 day 14 to the AUC0-24 after the cycle 1 day –5 lead-in dose. The ratio of the Cmax on day 14 to the Cmax on day –5 was also calculated. Additionally, the ratio of the AUC0-24 on cycle 1 day 14 to the AUCinf after the cycle 1 day –5 lead-in dose was calculated as an indication for any time-dependent change in rucaparib PK."}, "[3]": {"system": "patients with advanced solid tumours", "description": "This study was an open-label, multicentre, dose-escalating phase I study of rucaparib administered in combination with one of four different standard chemotherapeutic regimens (NCT01009190). […] The primary objective was to assess safety and tolerability and estimate the maximum tolerated dose (MTD) and/or select the recommended phase II dose of rucaparib in combination with chemotherapy. Secondary objectives were to characterise the pharmacokinetics (PK) and assess the antitumour activity of rucaparib when combined with chemotherapy.\nSafety assessments included collection of adverse events (AEs) and serious AEs (defined by National Cancer Institute Common Terminology Criteria for Adverse Events version 3.0; [Pedersen et al, 2013]), as well as vital signs, physical examination, 12-lead electrocardiogram, laboratory assessments, and verification of concurrent medications. Safety variables and demographic data were presented descriptively. The safety analysis set included all enrolled patients who started treatment."}, "[4]": {"system": "patients with advanced solid tumours", "assay": "Dose-limiting toxicities in cycle 1 and maximum tolerated dose", "type": "in vivo, human", "conditions": "days 1–14, with AUC5 carboplatin day 1, 21-day cycles", "method": "Initially, at least three patients were treated at each dose level. If no DLT was observed, the dose was escalated for the next cohort of three patients. […] If no further DLT was observed, the next dose level was opened. […] When a dose was concluded to be above the MTD, the preceding lower dose was declared the MTD, but only if six patients had already been treated at this lower dose.\nAll patients who received at least one dose of study medication were evaluable for toxicity."}, "[5]": {"assay": "clinical", "conditions": "human, in vivo; for half-life: t1/2", "protocol": "as §1, §2, §3"}, "[6]": {"system": "advanced ovarian or breast cancer associated with a germline BRCA1/2 mutation", "set-up": "method as in Drew et al, 2016", "conditions": "single agent, ref Drew et al, 2016, cited from earlier work"}, "[7]": {"conditions": "investigator-assessed, RECIST 1.1, All patients (N=85), all arms"}}, "note": "Like-named read-outs stand apart in the source and are kept apart here."}
{"compound": "CNCc1ccc(-c2[nH]c3cc(F)cc4c3c2CCNC4=O)cc1", "note": "[rucaparib]", "values": [{"measurement": "disease control rate (CR, PR, or SD for ⩾12 weeks)", "setting": "[1]; across all cohorts, among patients with available data (77 of 85)", "result": 68.8, "unit": "%"}, {"measurement": "partial responses that were confirmed", "setting": "[1]; across all cohorts, of 9 patients with PR", "result": 7, "unit": "patients"}, {"measurement": "Best response: Complete response", "setting": "[1]; [7]", "result": "1 (1.2) n (%)"}, {"measurement": "Best response: Partial response", "setting": "[1]; [7]", "result": "9 (10.6) n (%)"}, {"measurement": "Best response: Progressive disease", "setting": "[1]; [7]", "result": "24 (28.2) n (%)"}, {"measurement": "Best response: Stable disease", "setting": "[1]; [7]", "result": "43 (50.6) n (%)"}, {"measurement": "change in t1/2 at steady state compared with a single dose", "setting": "[2]; human", "result": "no change"}, {"measurement": "Ratio of rucaparib AUC0–24, day 1/day −10", "setting": "[2]; human, iv, 24 mg", "result": "1.02 (15)"}, {"measurement": "Ratio of rucaparib Cmax, day 1/day −10", "setting": "[2]; human, iv, 24 mg", "result": "1.03 (16)"}, {"measurement": "average increase of steady-state AUC0–24 compared with a single dose", "setting": "[2]; human, po", "result": 61, "unit": "%"}, {"measurement": "CL/F", "setting": "[2]; human, po, 12 mg", "result": "53.4 (39.7) L h^–1"}, {"measurement": "CL/F", "setting": "[2]; human, po, 36 mg", "result": "32.7 (41.9) L h^–1"}, {"measurement": "CL/F", "setting": "[2]; human, po, 48 mg", "result": "52.1 (150) L h^–1"}, {"measurement": "CL/F", "setting": "[2]; human, po, 72 mg", "result": "65.9 (49.4) L h^–1"}, {"measurement": "AR, accumulation ratio [AUC0-24, Day 14/AUC0-24, Day -5]", "setting": "[2]; human, po, 80 mg", "result": "1.19 (-)"}, {"measurement": "ARcm, accumulation ratio of Cmax on day 14 to Cmax on day –5", "setting": "[2]; human, po, 80 mg", "result": "1.50 (-)"}, {"measurement": "AUC ratio [time-dependent linearity]", "setting": "[2]; human, po, 80 mg", "result": "0.655 (-)"}, {"measurement": "AR, accumulation ratio [AUC0-24, Day 14/AUC0-24, Day -5]", "setting": "[2]; human, po, 120 mg", "result": "1.49 (104)"}, {"measurement": "ARcm, accumulation ratio of Cmax on day 14 to Cmax on day –5", "setting": "[2]; human, po, 120 mg", "result": "1.41 (99.8)"}, {"measurement": "AUC ratio [time-dependent linearity]", "setting": "[2]; human, po, 120 mg", "result": "1.14 (101)"}, {"measurement": "AR, accumulation ratio [AUC0-24, Day 14/AUC0-24, Day -5]", "setting": "[2]; human, po, 180 mg", "result": "1.36 (8.48)"}, {"measurement": "ARcm, accumulation ratio of Cmax on day 14 to Cmax on day –5", "setting": "[2]; human, po, 180 mg", "result": "1.11 (31.1)"}, {"measurement": "AUC ratio [time-dependent linearity]", "setting": "[2]; human, po, 180 mg", "result": "0.785 (13.3)"}, {"measurement": "CL/F", "setting": "[2]; human, po, 180 mg", "result": "21.4 (68.6) L h^–1"}, {"measurement": "AR, accumulation ratio [AUC0-24, Day 14/AUC0-24, Day -5]", "setting": "[2]; human, po, 240 mg", "result": "1.64 (28.2)"}, {"measurement": "ARcm, accumulation ratio of Cmax on day 14 to Cmax on day –5", "setting": "[2]; human, po, 240 mg", "result": "1.30 (29.7)"}, {"measurement": "AUC ratio [time-dependent linearity]", "setting": "[2]; human, po, 240 mg", "result": "1.01 (31.6)"}, {"measurement": "AR, accumulation ratio [AUC0-24, Day 14/AUC0-24, Day -5]", "setting": "[2]; human, po, 360 mg", "result": "1.7 (46.3)"}, {"measurement": "ARcm, accumulation ratio of Cmax on day 14 to Cmax on day –5", "setting": "[2]; human, po, 360 mg", "result": "1.29 (46.1)"}, {"measurement": "AUC ratio [time-dependent linearity]", "setting": "[2]; human, po, 360 mg", "result": "1.06 (53.1)"}, {"measurement": "dose dependence of exposure", "setting": "[2]", "result": "increased approximately dose proportionally"}, {"measurement": "effect of carboplatin coadministration on rucaparib oral PK", "setting": "[2]; po", "result": "not affected"}, {"measurement": "Patients who died of disease progression while on study", "setting": "[3]; across treatment arms, assessed as unrelated to study drug", "result": 7.1, "unit": "%"}, {"measurement": "Anaemia", "setting": "[3]; human, in vivo", "result": "31 (36.5) n (%)"}, {"measurement": "Asthenia", "setting": "[3]; human, in vivo", "result": "3 (3.5) n (%)"}, {"measurement": "Constipation", "setting": "[3]; human, in vivo", "result": "22 (25.9) n (%)"}, {"measurement": "Decreased appetite", "setting": "[3]; human, in vivo", "result": "17 (20.0) n (%)"}, {"measurement": "Diarrhoea", "setting": "[3]; human, in vivo", "result": "17 (20.0) n (%)"}, {"measurement": "Discontinued treatment with AE as the primary reason", "setting": "[3]; human, in vivo", "result": 18.4, "unit": "%"}, {"measurement": "Fatigue", "setting": "[3]; human, in vivo", "result": "45 (52.9) n (%)"}, {"measurement": "Grade ⩾3 AEs, patients", "setting": "[3]; human, in vivo", "result": 75.3, "unit": "%"}, {"measurement": "Grade ⩾3 anaemia, patients", "setting": "[3]; human, in vivo", "result": 11.8, "unit": "%"}, {"measurement": "Grade ⩾3 dyspnoea, patients", "setting": "[3]; human, in vivo", "result": 5.9, "unit": "%"}, {"measurement": "Grade ⩾3 fatigue, patients", "setting": "[3]; human, in vivo", "result": 12.9, "unit": "%"}, {"measurement": "Grade ⩾3 nausea, patients", "setting": "[3]; human, in vivo", "result": 7.1, "unit": "%"}, {"measurement": "Grade ⩾3 neutropenia, patients", "setting": "[3]; human, in vivo", "result": 27.1, "unit": "%"}, {"measurement": "Grade ⩾3 thrombocytopenia, patients", "setting": "[3]; human, in vivo", "result": 18.8, "unit": "%"}, {"measurement": "Grade ⩾3 vomiting, patients", "setting": "[3]; human, in vivo", "result": 5.9, "unit": "%"}, {"measurement": "Grade ⩾3 γ-glutamyltransferase increased, patients", "setting": "[3]; human, in vivo", "result": 5.9, "unit": "%"}, {"measurement": "Lethargy", "setting": "[3]; human, in vivo", "result": "15 (17.6) n (%)"}, {"measurement": "Leukopenia", "setting": "[3]; human, in vivo", "result": "7 (8.2) n (%)"}, {"measurement": "Lymphopenia", "setting": "[3]; human, in vivo", "result": "6 (7.1) n (%)"}, {"measurement": "Myalgia", "setting": "[3]; human, in vivo", "result": "7 (8.2) n (%)"}, {"measurement": "Nausea", "setting": "[3]; human, in vivo", "result": "48 (56.5) n (%)"}, {"measurement": "Neuropathy peripheral", "setting": "[3]; human, in vivo", "result": "10 (11.8) n (%)"}, {"measurement": "Neutropenia", "setting": "[3]; human, in vivo", "result": "32 (37.6) n (%)"}, {"measurement": "Patients who discontinued treatment because of AEs", "setting": "[3]; human, in vivo", "result": 25.9, "unit": "%"}, {"measurement": "Patients who discontinued treatment because of neutropenia", "setting": "[3]; human, in vivo", "result": 3.5, "unit": "%"}, {"measurement": "Patients who discontinued treatment because of platinum hypersensitivity", "setting": "[3]; human, in vivo", "result": 2.4, "unit": "%"}, {"measurement": "Patients who discontinued treatment because of thrombocytopenia", "setting": "[3]; human, in vivo", "result": 2.4, "unit": "%"}, {"measurement": "Stomatitis", "setting": "[3]; human, in vivo", "result": "14 (16.5) n (%)"}, {"measurement": "Thrombocytopenia", "setting": "[3]; human, in vivo", "result": "27 (31.8) n (%)"}, {"measurement": "Vomiting", "setting": "[3]; human, in vivo", "result": "28 (32.9) n (%)"}, {"measurement": "≥1 treatment-related adverse event", "setting": "[3]; human, in vivo", "result": "80 (94.1) n (%)"}, {"measurement": "Alopecia", "setting": "[3]; treatment-related, any grade, All patients (N = 85), all arms", "result": "15 (17.6) n (%)"}, {"measurement": "MTD of oral rucaparib in the combination", "setting": "[4]", "result": "240 mg once daily (q.d.)"}, {"measurement": "clearance", "setting": "[5]; iv, 12 mg", "result": 270, "unit": "mL/min"}, {"measurement": "half-life", "setting": "[5]; iv, 12 mg", "result": 1120, "unit": "min"}, {"measurement": "clearance", "setting": "[5]; iv, 18 mg", "result": 307, "unit": "mL/min"}, {"measurement": "half-life", "setting": "[5]; iv, 18 mg", "result": 982, "unit": "min"}, {"measurement": "clearance", "setting": "[5]; iv, 24 mg", "result": 233, "unit": "mL/min"}, {"measurement": "half-life", "setting": "[5]; iv, 24 mg", "result": 1240, "unit": "min"}, {"measurement": "clearance", "setting": "[5]; iv, 27 mg", "result": 237, "unit": "mL/min"}, {"measurement": "half-life", "setting": "[5]; iv, 27 mg", "result": 1010, "unit": "min"}, {"measurement": "clearance", "setting": "[5]; iv, 40 mg", "result": 232, "unit": "mL/min"}, {"measurement": "half-life", "setting": "[5]; iv, 40 mg", "result": 712, "unit": "min"}, {"measurement": "half-life", "setting": "[5]; po, 12 mg", "result": 1120, "unit": "min"}, {"measurement": "half-life", "setting": "[5]; po, 36 mg", "result": 1080, "unit": "min"}, {"measurement": "half-life", "setting": "[5]; po, 48 mg", "result": 1220, "unit": "min"}, {"measurement": "half-life", "setting": "[5]; po, 72 mg", "result": 1510, "unit": "min"}, {"measurement": "half-life", "setting": "[5]; po, 80 mg", "result": 1210, "unit": "min"}, {"measurement": "half-life", "setting": "[5]; po, 120 mg", "result": 796, "unit": "min"}, {"measurement": "half-life", "setting": "[5]; po, 180 mg", "result": 1150, "unit": "min"}, {"measurement": "half-life", "setting": "[5]; po, 240 mg", "result": 1060, "unit": "min"}, {"measurement": "half-life", "setting": "[5]; po, 360 mg", "result": 1100, "unit": "min"}, {"measurement": "half-life", "setting": "[5]", "result": "~1020", "unit": "min"}, {"measurement": "response rate", "setting": "[6]; continuous oral dosing", "result": 18, "unit": "%"}, {"measurement": "response rate", "setting": "[6]; intermittent intravenous (i.v.) dosing", "result": 2, "unit": "%"}]}
